Data published in US8846704B2, “Thiopyrimidine-based compounds and uses thereof” (YM Biosciences Austraila Pty Ltd, priority 2007, dated 2014).

Experiments:
[1] = target: T1, human JAK1 (Homo sapiens, UniProt P23458); assay: Alphascreen tyrosine kinase enzyme assay, JAK1 kinase domain; type: biochemical; conditions: read-out: JAK1 IC50_nM
T1 construct: The kinase domain of human JAK1 was amplified; GST (N); made in house; host or cells: Sf9 insect cells (baculovirus)
Method: For screening purposes, compounds (in 100% DMSO) were warmed at 37 degrees for at least 20 minutes before use. A […] stock was initially made in assay buffer, where the final concentration of DMSO was 0.3%. The stocks were then diluted in 384 well Optiplates (Packard) where the final concentration of the compound was […].
The kinase domain of human JAK1 was amplified from U937mRNA using the polymerase chain reaction with the following primers: […]
The JAK1 PCR products were cloned into the pDest20 destination vector (Gibco). The JAK1 plasmid was then transformed into competent DH10Bac cells (Gibco), and the recombinant baculovirus was prepared via Sf9 insect cell transfection.
Baculovirus preparations from each of the constructs were infected into either one or five liters of Sf9 cells (Invitrogen) grown in SF-900 medium (Invitrogen) to a cell density of approximately 1-2×10^6 cells/ml. Cells were infected with virus at a MOI of 0.8-3.0. Cells were harvested and lysed. Tyrosine kinase domains were purified by affinity chromatography on a glutathione-agarose column (Scientifix Pty. Ltd. catalog #: GSH-200).
Kinase assays were performed in 384 well Optiplates (Packard) using an Alphascreen Protein Tyrosine Kinase PY100 detection kit The compounds were pre-incubated with affinity purified PTK domain in the presence of phosphotyrosine assay buffer (10 mM HEPES, pH 7.5, 100 mM MgCl2, 25 mM NaCl, […] and 0.1% Tween 20) for 20 minutes. The compounds were then incubated with substrate in the presence of ATP. The substrate used was susbtrate-1 with the sequence biotin-EGPWLEEEEEAYGWMDF-NH2 [SEQ. ID. NO. 13] (final concentration […]). For HCK 80 μm ATP was used and incubated for 60 minutes. Alphascreen phosphotyrosine acceptor beads followed by streptavidin donor beads at a concentration of 1/100 in stop buffer were added to each well under subdued light and incubated for 2-3 hours., The Alphascreen plates were read on a Packard Fusion Alpha instrument.

[2] = target: T2, human JAK2 (Homo sapiens, UniProt O60674); assay: Alphascreen tyrosine kinase enzyme assay, JAK2 kinase domain; type: biochemical; conditions: read-out: JAK2 IC50_nM
T2 construct: The kinase domain of human JAK2 was amplified; GST (N); made in house; host or cells: Sf9 insect cells (baculovirus)
T2 sequence (O60674 849-1124 limits assumed): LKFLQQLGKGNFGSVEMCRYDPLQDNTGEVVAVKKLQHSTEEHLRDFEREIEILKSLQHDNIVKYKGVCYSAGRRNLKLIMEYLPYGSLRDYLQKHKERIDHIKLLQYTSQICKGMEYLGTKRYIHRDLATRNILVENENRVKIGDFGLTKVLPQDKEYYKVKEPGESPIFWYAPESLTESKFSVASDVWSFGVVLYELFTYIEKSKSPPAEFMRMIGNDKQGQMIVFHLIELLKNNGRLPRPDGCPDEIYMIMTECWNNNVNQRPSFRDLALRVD
Summary of the method: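 JAK2 kinase domain expressed in baculovirus/Sf9 and glutathione-affinity purified. Compounds (final […]) pre-incubated 20 min with enzyme in 10 mM HEPES pH 7.5, MgCl2, NaCl, vanadate, 0.1% Tween 20.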

[3] = target: T3, human JAK3 (Homo sapiens, UniProt P52333); assay: Alphascreen tyrosine kinase enzyme assay, JAK3 kinase domain; type: biochemical; conditions: read-out: JAK3 IC50_nM
T3 construct: The kinase domain of human JAK3 was amplified; GST (N); made in house; host or cells: Sf9 insect cells (baculovirus)
T3 sequence (P52333 822-1111 limits assumed): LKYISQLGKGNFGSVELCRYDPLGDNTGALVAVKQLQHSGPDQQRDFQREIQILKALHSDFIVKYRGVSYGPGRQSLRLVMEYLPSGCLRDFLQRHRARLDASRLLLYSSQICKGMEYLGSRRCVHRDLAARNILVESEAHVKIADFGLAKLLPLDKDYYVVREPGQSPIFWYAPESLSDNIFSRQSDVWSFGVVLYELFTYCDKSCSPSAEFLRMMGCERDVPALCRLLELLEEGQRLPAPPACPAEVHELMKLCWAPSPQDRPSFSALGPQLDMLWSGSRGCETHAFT
Summary of the method: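 GST-affinity-purified human JAK3 kinase domain (baculovirus/Sf9) was pre-incubated 20 min with compound ([…]) in HEPES pH 7.5 buffer with MgCl2, vanadate and Tween 20. Biotinylated peptide substrate ([…]) and ATP were then added; phosphotyrosine was detected by AlphaScreen PY100 acceptor and streptavidin donor beads after 2–3 h.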

[4] = target: T4, BaF3 TELJAK2 cells (BafT_J2) (Homo sapiens, UniProt O60674); assay: Cellular screening, BaF3 TEL:JAK2 cells, Alamar Blue; type: cell-based; conditions: 40 hr, read-out: BafT_J2 IC50_nM
T4 construct: fused on or other part: TEL (ETV6) N-terminal part, coding nucleotides 1-487, serves as the oligomerising partner; It is fused through a Sal I site to the JAK2 kinase domain and expressed from pTRE2 in BaF3 cells bearing pTET-off; P41212 (Transcription factor ETV6)
T4 sequence (O60674 whole entry, change not shown, the tested form may be a part): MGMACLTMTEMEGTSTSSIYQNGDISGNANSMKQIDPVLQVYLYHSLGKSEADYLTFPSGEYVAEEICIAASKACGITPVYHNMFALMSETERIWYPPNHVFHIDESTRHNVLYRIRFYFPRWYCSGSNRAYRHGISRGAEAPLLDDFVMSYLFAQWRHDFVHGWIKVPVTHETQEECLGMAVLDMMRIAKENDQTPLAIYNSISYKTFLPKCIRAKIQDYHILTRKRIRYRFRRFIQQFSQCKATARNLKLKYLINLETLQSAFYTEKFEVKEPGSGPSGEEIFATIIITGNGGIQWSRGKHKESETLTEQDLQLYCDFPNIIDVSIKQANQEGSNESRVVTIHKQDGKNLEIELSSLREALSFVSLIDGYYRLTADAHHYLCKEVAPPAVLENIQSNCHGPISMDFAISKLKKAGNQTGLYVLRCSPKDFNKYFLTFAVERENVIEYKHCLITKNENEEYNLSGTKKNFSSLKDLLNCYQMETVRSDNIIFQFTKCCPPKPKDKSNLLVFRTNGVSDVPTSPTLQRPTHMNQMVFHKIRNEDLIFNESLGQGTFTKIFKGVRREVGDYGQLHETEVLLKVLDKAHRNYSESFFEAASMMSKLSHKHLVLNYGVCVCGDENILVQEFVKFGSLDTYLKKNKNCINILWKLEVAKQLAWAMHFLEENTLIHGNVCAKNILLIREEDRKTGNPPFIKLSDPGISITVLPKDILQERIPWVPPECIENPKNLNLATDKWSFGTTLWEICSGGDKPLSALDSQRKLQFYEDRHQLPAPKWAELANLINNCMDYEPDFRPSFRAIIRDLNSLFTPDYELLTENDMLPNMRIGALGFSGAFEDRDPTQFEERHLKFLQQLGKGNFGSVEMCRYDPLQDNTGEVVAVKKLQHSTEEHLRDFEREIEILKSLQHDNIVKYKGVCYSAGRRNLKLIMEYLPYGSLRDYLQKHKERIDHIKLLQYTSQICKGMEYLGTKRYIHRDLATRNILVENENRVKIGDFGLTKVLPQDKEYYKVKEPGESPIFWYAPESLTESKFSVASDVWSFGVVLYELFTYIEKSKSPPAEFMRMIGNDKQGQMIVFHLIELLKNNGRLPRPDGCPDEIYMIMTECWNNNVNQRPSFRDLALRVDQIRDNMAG
Method: For screening purposes, compounds were diluted in 96 well plates at a concentration of 20 μM. Plates were warmed at 37° C. for 30 minutes before the assay was performed.
The coding region encompassing nucleotides 1-487 of TEL was amplified by PCR using the oligonucleotides STEL (5′-GGAGGATCCTGATCTCTCTCGCTGTGAGAC-3′) [SEQ ID NO 14] and 3TEL (5′-AGGC GTCGACTTCTTCTTCATGGTTCTG-3′) [SEQ ID NO 15] and U937 mRNA as a template. A […] restriction site was incorporated into the STEL primer, and a Sal I restriction site was incorporated into the 3TEL primer. The regions encompassing the kinase domain of JAK2 (nucleotides 2994-3914; JAK2F 5′-ACGC GTCGACGGTGCCTTTGAAGACCGGGAT-3′ [SEQ ID NO 16]; JAK2R 5′-ATAGTTTAGCGGCCGCTCAGAATGAAGGTCATTT-3′) [SEQ ID NO 17] and JAK3 (nucleotides 2520-3469; JAK3F 5′-GAAGTCGACTATGCCTGCCAAGACCCCACGATCTT-3′) [SEQ ID NO 18] were generated by PCR using Taq DNA polymerase (Gibco/BRL) and […] as a template. A Sal I restriction site was incorporated into the forward primer of JAK2 and JAK3, a Not I site was incorporated into the JAK2 reverse primer and a Xba I site was added to the reverse primer of JAK3.
A TEL/Jak2 fusion was generated by digestion of the TELPCR product with BamH I/Sal I restriction enzymes, digestion of the JAK2 PCR product with Sal I/Not I restriction enzymes, followed by ligation and subcloning of the ligation product into the mammalian expression Vector pTRE 2 (Clontech), which was prepared by digestion with BamH I-Not I restriction enzymes, to give the TEL/Jak2 fusion plasmid pTELJAK2.
The growth factor dependant myelomonocytic cell line BaF3 bearing the pTET-off plasmid (Clontech) was transfected with either pTELJAK2 or pTELJAK3, and the transfected cells were selected for growth-factor independent cell growth. The BaF3 wild-type cells were cultured in DMEM containing 10% FCS, 10% WEHI 3B conditioned medium. The BaF3 TELJAK cells ([…]) were cultured in DMEM 10% Tet-System Approved FBS (without WEHI 3B conditioned medium).
Cell suspensions were prepared by harvesting cells from culture (the cells used in this test were in late log phase growth with high viability.) Cells were diluted in the appropriate growth medium, as described above, to 1.1× final concentration (from 50,000 cell/mL to 200,000 cell/mL, depending on cell line).
Compounds to be tested were added (10 μL, 10× final concentration) to a flat bottomed 96-well plate. The cellular suspension (90 μL per well) was then added, and the plate incubated for 40 hr at 37° C., 5% CO2. Alamar Blue 10 μL per well was added and the plates returned to the incubator for a further 4-6 hours. The plates were then read at 544 nm.

T1 sequence (P23458 875-1153 limits assumed): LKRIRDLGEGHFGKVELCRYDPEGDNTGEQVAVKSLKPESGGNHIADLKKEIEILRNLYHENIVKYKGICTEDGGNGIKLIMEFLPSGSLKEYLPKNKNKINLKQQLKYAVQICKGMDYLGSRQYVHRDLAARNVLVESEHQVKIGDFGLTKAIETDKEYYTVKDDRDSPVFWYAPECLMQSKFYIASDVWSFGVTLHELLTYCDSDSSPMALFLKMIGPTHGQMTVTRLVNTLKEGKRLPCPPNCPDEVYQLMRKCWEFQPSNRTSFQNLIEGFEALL

Row | SMILES | IC50 [1] [nM] | IC50 [2] [nM] | IC50 [3] [nM] | GI50 [4] [nM]
1 | C=CC(=O)Nc1ccc(Sc2nc(Nc3ccc(NS(C)(=O)=O)c(OC)c3)ncc2C)cc1 [Compound 296, N-(4-(2-(3-methoxy-4-(methylsulfonamido)phenylao)-5-methylpyrimidin-4-ylthio)phenyl)acrylamide] | > 1000 | > 1000 | < 100 | < 5000
2 | C=CC(=O)Nc1ccc(Sc2nc(Nc3ccc(N4CCOCC4)cc3)ncc2C)c(C)c1 [Compound 163, N-(3-methyl-4-(5-methyl-2-(4-morpholinophenylao)pyrimidin-4-ylthio)phenyl)acrylamide] | > 1000 | > 1000 | < 100 | > 20000
3 | c1cc(Sc2ccc(Cn3cnnn3)cc2)nc(Nc2ccc(N3CCOCC3)cc2)n1 [Compound 109, 4-(4-((1H-tetrazol-1-yl)methyl)phenylthio)-N-(4-morpholinophenyl)pyrimidin-2-ae] | > 1000 | < 1000 | < 500 | < 20000
4 | C=CC(=O)NCc1ccc(Sc2ccnc(Nc3ccc(N4CCOCC4)cc3)n2)cc1 [Compound 111, N-(4-(2-(4-morpholinophenylamino)pyrimidin-4-ylthio)benzyl)acrylamide] | > 1000 | > 1000 | < 100 | < 20000
5 | C=CC(=O)Nc1ccc(Sc2nc(Nc3ccc(N4CCOCC4)c(OC)c3)ncc2C)cc1 [Compound 248, N-(4-(2-(3-methoxy-4-morpholinophenylao)-5-methylpyrimidin-4-ylthio)phenyl)acrylamide] | > 1000 | > 1000 | < 100 | < 20000
6 | C=CC(=O)Nc1ccc(Sc2nc(Nc3ccc(N4CCC(CO)CC4)cc3)ncc2C)cc1 [Compound 286, N-(4-(2-(4-(4-(hydroxymethyl)piperidin-1-yl)phenylao)-5-methylpyrimidin-4-ylthio)phenyl)acrylamide] | > 1000 | > 1000 | < 100 | > 20000
7 | Nc1ccc(Sc2ccnc(Nc3ccc(N4CCOCC4)cc3)n2)cc1 [Compound 27, 4-(4-aophenylthio)-N-(4-morpholinophenyl)pyrimidin-2-ae] | < 1000 | < 500 | < 1000 | > 20000
8 | O=C(/C=C/Cl)Nc1cccc(Sc2ccnc(Nc3ccc(N4CCOCC4)cc3)n2)c1 [Compound 340, (E)-3-chloro-N-(3-(2-(4-morpholinophenylao)pyrimidin-4-ylthio)phenyl)acrylamide] | > 1000 | > 1000 | < 100 | < 20000
9 | C=CC(=O)Nc1ccc(Sc2nc(Nc3ccc(N4CCCC(O)C4)cc3)ncc2C)cc1 (stereo not drawn) [Compound 299, N-(4-(2-(4-(3-hydroxypiperidin-1-yl)phenylao)-5-methylpyrimidin-4-ylthio)phenyl)acrylamide] | > 1000 | > 1000 | < 100 | < 20000
10 | Cc1cnc(Nc2ccc(O)cc2)nc1Sc1ccc(NC(=O)CCl)cc1 [Compound 193, 2-chloro-N-(4-(2-(4-hydroxyphenylao)-5-methylpyrimidin-4-ylthio)phenyl)acetamide] | > 1000 | > 1000 | < 100 | < 5000
11 | N#CCNCc1cccc(Sc2ccnc(Nc3ccc(N4CCOCC4)cc3)n2)c1 [Compound 68, 2-(3-(2-(4-morpholinophenylao)pyrimidin-4-ylthio)benzylao)acetonitrile] | < 1000 | < 100 | < 500 | < 20000
12 | C=CC(=O)Nc1ccc(Sc2ccnc(Nc3ccc(N4CCOCC4)cc3)n2)cc1OC [Compound 123, N-(2-methoxy-4-(2-(4-morpholinophenylao)pyrimidin-4-ylthio)phenyl)acrylamide] | > 1000 | > 1000 | < 100 | < 5000
13 | Nc1ccc(Sc2nc(Nc3cccc(N4CCOCC4)c3)ncc2I)cc1 [Compound 264, 4-(4-aophenylthio)-5-iodo-N-(3-morpholinophenyl)pyrimidin-2-ae] | – | > 1000 | < 500 | < 5000
14 | C=CC(=O)Nc1ccc(Sc2ccnc(Nc3ccc(O)cc3)n2)cc1 [Compound 276, N-(4-(2-(4-hydroxyphenylao)pyrimidin-4-ylthio)phenyl)acrylamide] | – | > 1000 | < 100 | < 20000
15 | Cc1cc(Sc2nc(Nc3ccc(N4CCOCC4)cc3)ncc2C)ccc1N [Compound 255, 4-(4-ao-3-methylphenylthio)-5-methyl-N-(4-morpholinophenyl)pyrimidin-2-ae] | – | < 1000 | < 500 | < 20000
16 | C=CC(=O)Nc1ccc(Sc2ccnc(Nc3cccc(CO)c3)n2)cc1 [Compound 278, N-(4-(2-(3-(hydroxymethyl)phenylao)pyrimidin-4-ylthio)phenyl)acrylamide] | – | > 1000 | < 100 | < 5000
17 | N#CCC(=O)Nc1cccc(Sc2ccnc(Nc3ccc(N4CCOCC4)cc3)n2)c1 [Compound 24, N-(3-(2-(4-morpholinophenylamino)pyrimidin-4-ylthio)phenyl)-2-cyanoacetamide] | > 1000 | < 500 | – | < 20000
18 | C=CC(=O)Nc1cccc(Nc2nccc(Sc3ccccc3)n2)c1 [Compound 16, N-(3-(4-(phenylthio)pyrimidin-2-ylamino)phenyl)acrylamide] | – | > 1000 | < 100 | < 5000
